The nature of one data set: logP by HPLC on reversed-phase column (C 18), EEC Directive 79/831 Annex V.A8, Method A (0.1% aqueous phosphoric acid / acetonitrile, 43°C). The class given is physicochemical. As to conditions: c18 reversed-phase hplc; LogP method A: HPLC reversed-phase C 18, 43°C, 0.1% aqueous phosphoric acid / acetonitrile. On the procedure:
(§1) Calibration was carried out using unbranched alkan-2-ones (having 3 to 16 carbon atoms) with known logP values (determination of the logP values by the retention times using linear interpolation between two successive alkanones).
As usually defined, the chromatographic logP is a lipophilicity value derived from retention on a column. A low value points to a more hydrophilic compound. `Cc1nn(C)c(F)c1C(=O)N(C1CC1)S(=O)(=O)c1ccccc1Cl` [compound 180] registered a chromatographic logP of 2.34. In turn, `Cc1n[nH]c(C)c1C(=O)N(C1CC1)S(=O)(=O)c1ccc(C(F)(F)F)cc1` [compound 402] yielded a chromatographic logP of 2.58.

As to `Cc1c(C(=O)N(C2CC2)S(=O)(=O)c2ccccc2Cl)cnn1-c1ccccc1` [compound 201], the chromatographic logP was 2.97. As to `Cc1n[nH]c(C)c1C(=O)N(C1CC1)S(=O)(=O)c1ccc(Cl)c(C(F)(F)F)c1` [compound 408], the chromatographic logP worked out at 3. The chromatographic logP values of the last two compounds are within 0.2 log units of each other. On the same count and under the same terms, in the case of `CC1=C(C(=O)N(C2CC2)S(=O)(=O)c2ccccc2Cl)OCCS1` [compound 652] it was 2.78; in that of `Cc1ccsc1C(=O)N(C1CC1)S(=O)(=O)c1cccc(Cl)c1` [compound 13], 3.64.

Turning to `Cc1nn(C)c(C)c1C(=O)N(C1CC1)S(=O)(=O)c1ccc(Cl)c(C(F)(F)F)c1` [compound 411], the chromatographic logP is 3.37. Compound `Cc1n[nH]c(C)c1C(=O)N(C1CC1)S(=O)(=O)c1ccc(Cl)c(Cl)c1` [compound 409] showed a chromatographic logP of 2.74.

For the compound `Cc1nn(C)c(F)c1C(=O)N(C1CC1)S(=O)(=O)c1ccc(C(F)(F)F)cc1Cl` [compound 213], the chromatographic logP amounted to 3.19. On the same count and under the same terms, in the case of `CCOC(=O)c1[nH]c(C)c(C(=O)N(C2CC2)S(=O)(=O)c2cccc(Cl)c2)c1C` [compound 29] it was 3.46; in that of `Cc1nn(C)c(Cl)c1C(=O)N(C1CC1)S(=O)(=O)c1ccc(Cl)c(C(F)(F)F)c1` [compound 406], 3.76. Same read-out and setting: as for `CCc1c(C(=O)N(C2CC2)S(=O)(=O)c2cccc(Cl)c2)sc(=O)n1C1CC1` [compound 615], the figure is 2.01; as for `Cc1nn(C)c(C)c1C(=O)N(C1CC1)S(=O)(=O)c1ccc(Cl)cc1Cl` [compound 413], 2.8; as for `Cc1nn(C)c(Oc2cccc(Cl)c2)c1C(=O)N(C1CC1)S(=O)(=O)c1ccc(Cl)c(Cl)c1` [compound 405], 4.46.

`CC(C)c1c(C(=O)N(C2CC2)S(=O)(=O)c2ccc(Cl)c(C(F)(F)F)c2)sc(=O)n1C1CC1` [compound 633] displayed a chromatographic logP of 3.01. Still for that read-out and setting: in the case of `O=C(C1=C(C(F)(F)F)OCCS1)N(C1CC1)S(=O)(=O)c1ccccc1Cl` [compound 653] it was 3.2; in that of `Cc1nc(C(=O)N(C2CC2)S(=O)(=O)c2ccc(Cl)c(Cl)c2)cs1` [compound 70], 3.46. `Cc1nn(C)c(F)c1C(=O)N(C1CC1)S(=O)(=O)c1ccc(Cl)cc1Cl` [compound 186] displayed a chromatographic logP of 2.94. `O=C(c1cc(Br)c(Br)s1)N(C1CC1)S(=O)(=O)c1ccccc1Cl` [compound 15]: the chromatographic logP stood at 4.07. The same measure, in the same setting: in the case of `Cc1cc(C)c(C(=O)N(C2CC2)S(=O)(=O)c2cccc(Cl)c2Cl)c(Cl)n1` [compound 650] it was 3.57.

The nature of the next data set: logP by HPLC on reversed-phase column (C 18), EEC Directive 79/831 Annex V.A8, Method B (0.1% aqueous formic acid / acetonitrile, 40°C). As to conditions: LogP method B: HPLC reversed-phase C 18, 40°C, 0.1% aqueous formic acid / acetonitrile. The class given is physicochemical. As for the experimental part:
as §1
In the case of `CCCCCc1ccc(Oc2ccc(S(=O)(=O)N(C(=O)c3cn(C)nc3OCC)C3CC3)c(Br)c2)cc1` [compound 561], the LogP is recorded as 5,8.

The data set is the same for the next values; noted with them: c18 reversed-phase hplc; LogP method B: HPLC reversed-phase C 18, 40°C, 0.1% aqueous formic acid / acetonitrile.
In the case of `Cc1cc(C(=O)N(C2CC2)S(=O)(=O)c2ccc(Cl)c(Cl)c2Cl)c(C)o1` [compound 6], the chromatographic logP was 4.4. On the same count and under the same terms, in the case of `COc1nn(C)cc1C(=O)N(C1CC1)S(=O)(=O)c1ccc(Oc2cccc(Cl)c2)cc1Br` [compound 468] it was 3.7; in that of `Cn1ncc(I)c1C(=O)N(C1CC1)S(=O)(=O)c1cccc(Cl)c1Cl` [compound 662], 2.8; in that of `CCOc1nn(C)cc1C(=O)N(C1CC1)S(=O)(=O)c1ccc(Oc2ccc(Cl)c(C(F)(F)F)c2)c(Cl)c1` [compound 556], 4.8.

As to `CC(C)c1nn(C)c(F)c1C(=O)N(C1CC1)S(=O)(=O)c1cccc(Cl)c1Cl` [compound 93], the chromatographic logP was 3.6. As to `CCc1nn(C)c(F)c1C(=O)N(C1CC1)S(=O)(=O)c1csc(Cl)c1Cl` [compound 438], the chromatographic logP was found to be 4. Same read-out and setting: in the case of `CCc1nn(C)c(F)c1C(=O)N(C1CC1)S(=O)(=O)c1c(C)nn(C)c1Cl` [compound 382] it was 2.3; in that of `Cc1nocc1C(=O)N(C1CC1)S(=O)(=O)c1cccc(Cl)c1Cl` [compound 599], 3. For `Cn1nc(-c2ccccc2)c(C(=O)N(C2CC2)S(=O)(=O)c2ccc(Cl)c(Cl)c2Cl)c1F` [compound 100], the chromatographic logP turned out to be 4.3. In turn, `CCOc1nn(C)cc1C(=O)N(C1CC1)S(=O)(=O)c1ccc(Oc2ccc(OC)c(OC)c2)cc1Cl` [compound 527] showed a chromatographic logP of 3.2. The same measure, in the same setting: as for `CC(C)c1nn(C)c(F)c1C(=O)N(C1CC1)S(=O)(=O)c1ccc(Cl)cc1Cl` [compound 96], the figure is 3.8; as for `CCOc1nn(C)cc1C(=O)N(C1CC1)S(=O)(=O)c1ccc(Oc2cccc(Br)c2)cc1Cl` [compound 534], 3.9; as for `CCOc1nn(C)cc1C(=O)N(C1CC1)S(=O)(=O)c1ccc(Oc2ccc(F)c(Cl)c2)c(Cl)c1` [compound 548], 4.4.

For the compound `CCOc1nn(C)cc1C(=O)N(C1CC1)S(=O)(=O)c1ccc(Oc2cc(Cl)cc(Cl)c2)c(Cl)c1` [compound 559], the chromatographic logP was 5.

`CCCOc1nn(C)cc1C(=O)N(C1CC1)S(=O)(=O)c1ccc(Oc2ccc(Cl)c(C(F)(F)F)c2)cc1Br` [compound 302] came in with a chromatographic logP of 4.9. Still for that read-out and setting: as for `CCOc1nn(C)cc1C(=O)N(C1CC1)S(=O)(=O)c1ccc(Oc2ccc(OC)cc2)cc1Cl` [compound 529], the figure is 3.5; as for `Cn1nc(C(F)(F)F)c(C(=O)N(C2CC2)S(=O)(=O)c2ccc(F)cc2Cl)c1F` [compound 362], 3.1; as for `CC(F)c1nn(C)cc1C(=O)N(C1CC1)S(=O)(=O)c1cccc(Cl)c1Cl` (centres unmarked) [compound 119], 2.8. As for `Cn1nc(C(F)(F)F)c(C(=O)N(C2CC2)S(=O)(=O)c2c(Cl)cc(Cl)cc2Cl)c1F` [compound 363], the chromatographic logP amounted to 3.7. In turn, `CCc1nn(C)c(F)c1C(=O)N(C1CC1)S(=O)(=O)c1c(Cl)cc(C(F)(F)F)cc1Cl` [compound 387] gave a chromatographic logP of 3.8. Consider `CCOc1nn(C)cc1C(=O)N(C1CC1)S(=O)(=O)c1ccc(Oc2ccccc2)cc1Cl` [compound 530], for which the chromatographic logP turned out to be 3.6.

Turning to `CCOc1nn(C)cc1C(=O)N(C1CC1)S(=O)(=O)c1ccc(Oc2ccc(Cl)cc2)cc1Cl` [compound 535], the chromatographic logP worked out at 4.

With `Cn1nc(C(F)(F)F)c(C(=O)N(C2CC2)S(=O)(=O)c2ccc(Cl)c(Cl)c2Cl)c1F` [compound 108], the chromatographic logP is 4.1. The chromatographic logP values of the last two compounds are within 0.2 log units of each other. For `Cn1nc(C(F)F)c(C(=O)N(C2CC2)S(=O)(=O)c2ccccc2Cl)c1F` [compound 103], the chromatographic logP amounted to 2.8. `CCc1nn(C)c(F)c1C(=O)N(C1CC1)S(=O)(=O)c1c(Cl)cc(Cl)cc1Cl` [compound 379] came in with a chromatographic logP of 3.6.

`CCOc1nn(C)cc1C(=O)N(C1CC1)S(=O)(=O)c1ccc(Oc2ccc(C)cc2)c(Cl)c1` [compound 542]: the chromatographic logP was found to be 4.3. The same measure, in the same setting: as for `COc1nn(C)cc1C(=O)N(C1CC1)S(=O)(=O)c1ccc(Oc2cc(Cl)cc(Cl)c2)cc1Br` [compound 481], the figure is 4.3; as for `CCc1nn(C)c(F)c1C(=O)N(C1CC1)S(=O)(=O)c1ccc(Cl)c(Cl)c1` [compound 378], 3.8.

`CCOc1nn(C)cc1C(=O)N(C1CC1)S(=O)(=O)c1ccc(Oc2ccc(F)c(Cl)c2)cc1Cl` [compound 536]: the chromatographic logP stood at 4. `CCOc1nn(C)cc1C(=O)N(C1CC1)S(=O)(=O)c1ccc(Oc2cccc(N(C)C)c2)c(Cl)c1` [compound 539] showed a chromatographic logP of 4.1. This chromatographic logP and that of the compound before are within 0.2 log units of each other. Compound `CCOc1nn(C)cc1C(=O)N(C1CC1)S(=O)(=O)c1ccc(Oc2cccc(Cl)c2)c(Cl)c1` [compound 546] gave a chromatographic logP of 4.3. On the same count and under the same terms, as for `Cn1nc(C(F)F)c(C(=O)N(C2CC2)S(=O)(=O)c2ccc(Cl)cc2Cl)c1F` [compound 105], the figure is 3.4; as for `COc1nn(C)cc1C(=O)N(C1CC1)S(=O)(=O)c1ccc(Oc2ccc(Br)c(Cl)c2)cc1Br` [compound 480], 4.2. With `CCc1nn(C)c(F)c1C(=O)N(C1CC1)S(=O)(=O)c1ccc(Br)cc1Cl` [compound 385], the chromatographic logP was 3.4.

Regarding `Cn1nc(C2CC2)c(C(=O)N(C2CC2)S(=O)(=O)c2ccc(Cl)c(Cl)c2Cl)c1F` [compound 224], the chromatographic logP amounted to 3.9.

As to `Cn1nc(C(F)(F)F)c(C(=O)N(C2CC2)S(=O)(=O)c2ccc(Oc3ncc(C(F)(F)F)cc3Cl)cc2)c1F` [compound 372], the chromatographic logP amounted to 4.2.

In the case of `CCOc1nn(C)cc1C(=O)N(C1CC1)S(=O)(=O)c1ccc(Oc2ccc(Cl)cc2Cl)c(Cl)c1` [compound 555], the chromatographic logP turned out to be 4.7. Consider `CCOc1nn(C)cc1C(=O)N(C1CC1)S(=O)(=O)c1ccc(Oc2cccc(OC(F)(F)F)c2)c(Cl)c1` [compound 554], for which the chromatographic logP is 4.5.

In the case of `COc1c(C(=O)N(C2CC2)S(=O)(=O)c2ccc(Cl)c(Cl)c2Cl)c(C)nn1C` [compound 230], the chromatographic logP stood at 3.2. Turning to `Cn1cc(C(=O)N(C2CC2)S(=O)(=O)c2cccc(Cl)c2Cl)c(C(F)F)n1` [compound 221], the chromatographic logP amounted to 2.9. `COc1nn(C)c(Cl)c1C(=O)N(C1CC1)S(=O)(=O)c1ccc(Cl)c(Cl)c1Cl` [compound 282] showed a chromatographic logP of 3.8. On the same count and under the same terms, as for `CCOc1nn(C)cc1C(=O)N(C1CC1)S(=O)(=O)c1ccc(Oc2ccc(OC)c(OC)c2)c(Cl)c1` [compound 528], the figure is 3.5; as for `O=C(c1cccnc1Cl)N(C1CC1)S(=O)(=O)c1ccc(Cl)c(Cl)c1Cl` [compound 647], 3.7; as for `CCc1nn(C)c(F)c1C(=O)N(C1CC1)S(=O)(=O)c1ccc(Oc2ccc(Cl)cc2)cc1` [compound 391], 4.2.

The record behind these values is EP2540163A1, “Nematocide N-cyclopropyl-sulfonylamide derivatives” (Bayer CropScience AG, priority 2011, dated 2013).
